Legend:
[1] = molecular target: T1, Histone-lysine N-methyltransferase, H3 lysine-79 specific (Homo sapiens, UniProt Q8TEK3); assay: Inhibition of DOT1L (unknown origin) using chicken nucleosome as substrate in presence of [3H]SAM incubated for 1 hr by TopCount method
Target sequence in this assay (Q8TEK3 whole entry): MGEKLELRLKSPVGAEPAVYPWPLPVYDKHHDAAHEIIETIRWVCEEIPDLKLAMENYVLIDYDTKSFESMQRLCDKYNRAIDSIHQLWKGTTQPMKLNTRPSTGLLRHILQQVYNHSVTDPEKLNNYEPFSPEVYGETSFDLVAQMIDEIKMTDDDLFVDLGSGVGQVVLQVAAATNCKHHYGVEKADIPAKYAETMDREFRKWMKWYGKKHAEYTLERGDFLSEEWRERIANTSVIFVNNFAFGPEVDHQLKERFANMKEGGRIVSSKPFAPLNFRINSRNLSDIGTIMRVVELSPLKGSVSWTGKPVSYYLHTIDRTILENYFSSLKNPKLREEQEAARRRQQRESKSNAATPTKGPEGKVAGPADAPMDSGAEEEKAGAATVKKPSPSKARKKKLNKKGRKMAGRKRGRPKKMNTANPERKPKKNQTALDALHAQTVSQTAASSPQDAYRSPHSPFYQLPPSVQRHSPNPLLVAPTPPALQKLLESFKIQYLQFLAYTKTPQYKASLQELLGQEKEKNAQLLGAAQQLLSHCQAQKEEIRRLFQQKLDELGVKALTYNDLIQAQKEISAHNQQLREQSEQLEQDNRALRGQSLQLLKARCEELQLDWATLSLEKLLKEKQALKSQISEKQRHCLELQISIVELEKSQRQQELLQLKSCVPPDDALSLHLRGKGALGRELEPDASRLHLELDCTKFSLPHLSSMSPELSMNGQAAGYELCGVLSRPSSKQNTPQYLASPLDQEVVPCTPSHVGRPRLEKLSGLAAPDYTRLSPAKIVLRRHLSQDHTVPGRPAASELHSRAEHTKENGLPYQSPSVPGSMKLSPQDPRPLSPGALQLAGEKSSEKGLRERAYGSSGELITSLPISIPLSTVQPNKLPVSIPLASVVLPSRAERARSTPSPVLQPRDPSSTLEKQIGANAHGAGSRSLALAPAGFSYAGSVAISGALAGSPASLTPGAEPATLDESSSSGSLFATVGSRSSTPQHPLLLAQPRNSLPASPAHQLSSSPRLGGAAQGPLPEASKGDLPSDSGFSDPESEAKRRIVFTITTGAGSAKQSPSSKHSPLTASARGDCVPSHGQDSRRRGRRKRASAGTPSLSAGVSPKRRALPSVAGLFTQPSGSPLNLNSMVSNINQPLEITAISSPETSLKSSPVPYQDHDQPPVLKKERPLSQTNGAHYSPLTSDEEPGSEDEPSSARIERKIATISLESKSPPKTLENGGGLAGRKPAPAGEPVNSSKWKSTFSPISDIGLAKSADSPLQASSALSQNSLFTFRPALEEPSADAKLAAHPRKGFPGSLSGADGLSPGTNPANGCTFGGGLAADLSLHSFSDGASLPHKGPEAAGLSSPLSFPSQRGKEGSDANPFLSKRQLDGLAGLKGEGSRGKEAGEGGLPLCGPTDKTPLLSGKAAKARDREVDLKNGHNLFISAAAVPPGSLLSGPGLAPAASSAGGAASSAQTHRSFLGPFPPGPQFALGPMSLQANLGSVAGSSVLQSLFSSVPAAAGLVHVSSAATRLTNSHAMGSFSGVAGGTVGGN

[2] = molecular target: T2, Histone-lysine N-methyltransferase SETD7 (Homo sapiens, UniProt Q8WTS6); assay: Inhibition of SETD7 (unknown origin)
T2 sequence (Q8WTS6 whole entry): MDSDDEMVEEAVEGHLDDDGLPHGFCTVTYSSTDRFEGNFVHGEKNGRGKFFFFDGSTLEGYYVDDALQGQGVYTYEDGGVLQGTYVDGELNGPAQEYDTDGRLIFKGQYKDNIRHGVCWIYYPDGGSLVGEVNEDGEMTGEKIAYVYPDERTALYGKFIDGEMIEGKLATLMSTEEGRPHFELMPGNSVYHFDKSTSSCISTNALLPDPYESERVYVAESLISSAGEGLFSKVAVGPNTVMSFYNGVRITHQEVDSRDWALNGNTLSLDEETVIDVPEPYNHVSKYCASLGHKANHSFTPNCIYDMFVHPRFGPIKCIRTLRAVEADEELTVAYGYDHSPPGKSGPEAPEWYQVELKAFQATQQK

[3] = molecular target: Protein arginine N-methyltransferase 3 (Homo sapiens, UniProt O60678); assay: Inhibition of PRMT3 (unknown origin)
[4] = molecular target: Histone-lysine N-methyltransferase SUV39H2 (Homo sapiens, UniProt Q9H5I1); assay: Inhibition of SUV39H2 (unknown origin)
[5] = molecular target: T1, Histone-lysine N-methyltransferase, H3 lysine-79 specific; assay: Inhibition of DOT1L (unknown origin) at 250 uM using chicken nucleosome as substrate in presence of [3H]SAM incubated for 1 hr by TopCount method
Target sequence in this assay (Q8TEK3 whole entry, looked up): as the sequence (Q8TEK3 whole entry) above

[6] = molecular target: Protein arginine N-methyltransferase 5 (Homo sapiens, UniProt O14744); assay: Inhibition of PRMT5 (unknown origin)
[7] = molecular target: Histone-lysine N-methyltransferase EZH2 (Homo sapiens, UniProt Q15910); assay: Inhibition of EZH2 (unknown origin)
[8] = molecular target: T3, Histone-lysine N-methyltransferase EHMT2 (Homo sapiens, UniProt Q96KQ7); assay: Inhibition of G9a (unknown origin)
T3 sequence (Q96KQ7 whole entry): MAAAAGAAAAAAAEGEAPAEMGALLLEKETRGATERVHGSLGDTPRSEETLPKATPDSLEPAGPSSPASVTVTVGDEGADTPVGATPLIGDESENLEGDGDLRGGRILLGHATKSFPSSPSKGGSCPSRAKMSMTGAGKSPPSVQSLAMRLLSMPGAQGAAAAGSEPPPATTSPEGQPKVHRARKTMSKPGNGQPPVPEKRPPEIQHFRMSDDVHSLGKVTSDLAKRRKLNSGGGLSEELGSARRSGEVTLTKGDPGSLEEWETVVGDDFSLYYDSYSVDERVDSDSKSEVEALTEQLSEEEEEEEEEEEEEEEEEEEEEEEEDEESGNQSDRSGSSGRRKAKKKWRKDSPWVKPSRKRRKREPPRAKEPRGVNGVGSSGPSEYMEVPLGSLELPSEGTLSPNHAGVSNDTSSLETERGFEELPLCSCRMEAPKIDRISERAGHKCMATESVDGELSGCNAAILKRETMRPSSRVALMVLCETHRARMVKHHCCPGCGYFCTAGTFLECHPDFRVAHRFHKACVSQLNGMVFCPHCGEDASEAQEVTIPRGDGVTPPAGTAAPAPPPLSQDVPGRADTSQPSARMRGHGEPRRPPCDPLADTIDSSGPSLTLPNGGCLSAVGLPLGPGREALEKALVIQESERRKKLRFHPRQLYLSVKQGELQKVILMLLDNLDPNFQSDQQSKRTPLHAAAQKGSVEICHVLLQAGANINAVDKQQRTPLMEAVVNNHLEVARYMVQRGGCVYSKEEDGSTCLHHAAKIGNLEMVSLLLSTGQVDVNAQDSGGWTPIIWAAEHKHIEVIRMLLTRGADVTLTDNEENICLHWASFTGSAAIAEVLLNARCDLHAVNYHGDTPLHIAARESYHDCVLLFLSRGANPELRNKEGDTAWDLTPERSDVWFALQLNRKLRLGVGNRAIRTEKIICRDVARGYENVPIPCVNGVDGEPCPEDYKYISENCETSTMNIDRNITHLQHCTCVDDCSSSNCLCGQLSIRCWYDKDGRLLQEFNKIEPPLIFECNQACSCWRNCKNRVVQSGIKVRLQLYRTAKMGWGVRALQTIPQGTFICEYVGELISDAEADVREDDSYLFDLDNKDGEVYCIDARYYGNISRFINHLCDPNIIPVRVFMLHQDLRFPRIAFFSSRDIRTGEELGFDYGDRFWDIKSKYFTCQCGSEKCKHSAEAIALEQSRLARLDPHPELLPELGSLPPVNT

[9] = molecular target: DNA (cytosine-5)-methyltransferase 1 (Homo sapiens, UniProt P26358); assay: Inhibition of DNMT1 (unknown origin)

Sequence of Histone-lysine N-methyltransferase SUV39H2 (Q9H5I1 whole entry): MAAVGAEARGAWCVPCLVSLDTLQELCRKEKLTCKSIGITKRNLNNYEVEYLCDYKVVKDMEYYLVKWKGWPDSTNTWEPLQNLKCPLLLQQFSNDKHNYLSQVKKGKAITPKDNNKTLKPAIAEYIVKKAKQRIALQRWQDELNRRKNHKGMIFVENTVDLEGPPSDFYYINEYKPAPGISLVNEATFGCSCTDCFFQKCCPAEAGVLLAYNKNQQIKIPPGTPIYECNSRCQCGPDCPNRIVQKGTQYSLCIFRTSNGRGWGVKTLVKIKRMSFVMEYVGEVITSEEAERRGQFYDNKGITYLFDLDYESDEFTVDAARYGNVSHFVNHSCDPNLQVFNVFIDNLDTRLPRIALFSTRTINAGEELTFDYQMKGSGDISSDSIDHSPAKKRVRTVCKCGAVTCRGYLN
Sequence of Protein arginine N-methyltransferase 3 (O60678 whole entry): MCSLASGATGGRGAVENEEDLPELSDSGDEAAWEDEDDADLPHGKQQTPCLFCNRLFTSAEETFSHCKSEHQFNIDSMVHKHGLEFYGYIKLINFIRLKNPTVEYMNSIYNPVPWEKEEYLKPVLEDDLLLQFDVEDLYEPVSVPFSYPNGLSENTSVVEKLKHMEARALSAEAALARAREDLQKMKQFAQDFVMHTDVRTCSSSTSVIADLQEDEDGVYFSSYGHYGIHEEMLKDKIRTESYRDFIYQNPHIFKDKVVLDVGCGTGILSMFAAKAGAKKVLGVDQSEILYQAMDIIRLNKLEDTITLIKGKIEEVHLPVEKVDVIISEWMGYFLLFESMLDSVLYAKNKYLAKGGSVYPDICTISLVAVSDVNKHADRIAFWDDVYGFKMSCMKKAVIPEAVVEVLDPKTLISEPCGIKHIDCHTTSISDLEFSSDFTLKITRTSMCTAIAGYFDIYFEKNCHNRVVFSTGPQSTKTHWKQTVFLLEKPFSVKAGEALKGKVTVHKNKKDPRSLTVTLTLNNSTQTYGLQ
Sequence of Histone-lysine N-methyltransferase EZH2 (Q15910 whole entry): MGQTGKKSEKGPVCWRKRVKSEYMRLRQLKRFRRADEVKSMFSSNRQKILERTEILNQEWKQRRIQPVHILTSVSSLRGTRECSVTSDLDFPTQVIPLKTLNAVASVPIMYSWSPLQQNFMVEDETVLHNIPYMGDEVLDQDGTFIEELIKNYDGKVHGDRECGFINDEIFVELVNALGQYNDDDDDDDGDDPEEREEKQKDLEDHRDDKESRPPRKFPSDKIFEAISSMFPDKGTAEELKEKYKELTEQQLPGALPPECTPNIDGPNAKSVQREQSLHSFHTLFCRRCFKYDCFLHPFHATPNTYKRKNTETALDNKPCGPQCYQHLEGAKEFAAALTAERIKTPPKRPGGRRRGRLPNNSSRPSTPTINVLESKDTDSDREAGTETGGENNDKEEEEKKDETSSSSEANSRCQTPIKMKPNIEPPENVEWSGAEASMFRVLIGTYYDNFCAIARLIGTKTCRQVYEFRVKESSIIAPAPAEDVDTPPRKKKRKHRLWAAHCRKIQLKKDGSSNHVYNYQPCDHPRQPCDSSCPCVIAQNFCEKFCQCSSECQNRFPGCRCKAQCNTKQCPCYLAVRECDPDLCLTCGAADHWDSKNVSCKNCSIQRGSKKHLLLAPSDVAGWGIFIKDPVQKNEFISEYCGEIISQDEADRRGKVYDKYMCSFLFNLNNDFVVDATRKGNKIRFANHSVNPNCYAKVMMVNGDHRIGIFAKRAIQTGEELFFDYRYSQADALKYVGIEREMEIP
Sequence of Protein arginine N-methyltransferase 5 (O14744 whole entry): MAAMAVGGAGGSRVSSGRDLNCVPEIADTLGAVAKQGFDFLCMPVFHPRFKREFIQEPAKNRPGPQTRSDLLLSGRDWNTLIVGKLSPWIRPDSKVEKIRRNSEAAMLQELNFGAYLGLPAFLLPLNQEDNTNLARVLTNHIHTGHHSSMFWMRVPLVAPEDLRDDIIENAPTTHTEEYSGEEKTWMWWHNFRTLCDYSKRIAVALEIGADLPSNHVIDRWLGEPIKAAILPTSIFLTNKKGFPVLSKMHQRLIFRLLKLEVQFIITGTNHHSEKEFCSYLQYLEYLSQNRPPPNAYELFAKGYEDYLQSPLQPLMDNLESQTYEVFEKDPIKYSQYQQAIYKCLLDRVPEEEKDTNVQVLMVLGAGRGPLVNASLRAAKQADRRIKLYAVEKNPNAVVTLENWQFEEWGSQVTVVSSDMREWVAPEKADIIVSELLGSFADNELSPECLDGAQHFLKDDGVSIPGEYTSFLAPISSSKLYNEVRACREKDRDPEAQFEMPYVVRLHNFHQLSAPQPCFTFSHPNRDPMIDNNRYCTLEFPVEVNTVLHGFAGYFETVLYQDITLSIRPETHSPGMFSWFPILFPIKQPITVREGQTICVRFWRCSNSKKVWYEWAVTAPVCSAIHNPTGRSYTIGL

SMILES: C#Cc1cn([C@@H]2O[C@H](CO)[C@@H](O)[C@H]2O)c2ncnc(N)c12
- IC50 [1]: 41 µM

SMILES: Nc1ncnc2c1ncn2[C@@H]1O[C@H](CSCC[C@H](N)C(=O)O)[C@@H](O)[C@H]1O [S-ADENOSYLHOMOCYSTEINE]
- IC50 ([2]; read-out: IC50): 47 µM
- IC50 [3]: 2 µM
- IC50 ([4]; read-out: IC50): 22 µM

SMILES: Nc1ncnc2c1c(F)cn2[C@@H]1O[C@H](CO)[C@@H](O)[C@H]1O
- IC50 [1]: 200 µM

SMILES: N#Cc1c(Br)n([C@@H]2O[C@H](CO)[C@@H](O)[C@H]2O)c2ncnc(N)c12
- IC50 [1]: 200 µM

SMILES: N#Cc1cn([C@@H]2O[C@H](CO)[C@@H](O)[C@H]2O)c2ncnc(N)c12 [TOYOCAMYCIN]
- IC50 [1]: 44 µM

SMILES: Nc1ncnc2c1c(-c1ncco1)cn2[C@@H]1O[C@H](CO)[C@@H](O)[C@H]1O
- IC50 [1]: 43 µM

SMILES: Nc1ncnc2c1c(I)nn2[C@@H]1O[C@H](CO)[C@@H](O)[C@H]1O
- IC50 [1]: 22 µM

SMILES: NC(=O)c1cn([C@@H]2O[C@H](CO)[C@@H](O)[C@H]2O)c2ncnc(N)c12 [SANGIVAMYCIN]
- IC50 [1]: 26 µM

SMILES: COc1ccc(Cc2cn([C@@H]3O[C@H](CO)[C@@H](O)[C@H]3O)c3ncnc(N)c23)cc1
- inhibition [5]: 42%

SMILES: N#Cc1cn([C@@H]2O[C@H](CSCC[C@H](N)C(=O)O)[C@@H](O)[C@H]2O)c2ncnc(N)c12
- IC50 [6]: 2.4 µM
- IC50 [7]: Not Active
- IC50 [2]: Not Active
- IC50 [8]: 99 µM
- IC50 [9]: 0.15 µM
- IC50 [3]: 0.87 µM
- IC50 [4]: Not Active

From ChEMBL document CHEMBL4477246, “New small molecule inhibitors of histone methyl transferase DOT1L with a nitrile as a non-traditional replacement for heavy halogen atoms” (Bioorg Med Chem Lett, 2016)
